Measurements taken from PMC5866846 (Archives of Toxicology, 2017).
Where two headings read alike, the source gives them in different places.

Tests used:
[1] = Formation kinetics of Tam-Bis, (Z)- and (E)-Met E in HLM with increasing substrate concentrations; format: in vitro ADME, human; settings: substrate 1 to 50 µM, Michaelis-Menten
Experimental: The reaction was started by adding a NADPH regenerating system (5 mM MgCl2, 5 mM glucose-6-phosphate, 0.5 mM NADP^+ and 10 U glucose-6-phosphate-dehydrogenase in 100 mM sodium phosphate buffer pH 7.4) to the samples and immediately put in a 37 °C water bath for 30 min. The reaction was stopped with the same volume of acetonitrile (ACN) containing 1% of acetic acid together with the corresponding deuterated internal standards. Regarding incubations with Supersomes™ containing UGTs, 5 µg of protein was incubated with 250 mM MgCl2 and 2.5 ng of alamethicin for 30 min on ice, followed by 10 min at 37 °C in a water bath. Subsequently, the Supersomes™ were incubated with 10 µM of substrates (Tam-Bis, (E)- and (Z)-Met E) and the glucuronidation was started by addition of 10 mM of uridine 5′-diphospho-glucuronic acid to the samples in a water bath at 37 °C for 30 min. The reaction was stopped as described above. Metabolites were analyzed by HPLC-ESI-MS/MS.
For the assessment of formation kinetics of Tam-Bis, (E)- and (Z)-Metabolite E, HLM were incubated with increasing substrate concentrations ranging from 1 to 50 µM as described above. As control for each concentration a sample without NADPH-regenerating system was prepared. […]

[2] = tested on: upcyte hepatocytes 653-03 and 653-03 2D6; assay: Tam metabolism in upcyte hepatocytes, cell strain not distinguished; format: in vitro ADME, human; settings: cells incubated with 1 µM Tam; highest concentration, decreased over time
Experimental: (§1) The medium was replaced every 2–3 days. […].
(§2) The culture medium was collected after 24, 48, 72, 96 and 144 h followed by metabolite measurements using HPLC-ESI-MS/MS.
(§3) Protein was precipitated by the addition of ACN containing 1% of acetic acid and the corresponding deuterated internal standards to the same volume of the sample followed by centrifugation at 20.000 g for 15 min at RT. […] Analytes were separated on a Zorbax Eclipse Plus C18 column (1.8 µm, 100 × 2.1 mm, Agilent technologies) and detected on a 6460 triple quadrupole mass spectrometer (Agilent technologies) in positive ESI MRM mode. Glucuronides of estrogen-like metabolites were detected separately via MS/MS-measurements in negative ESI MRM mode.
(§4) […]. […] […].

CYP1A2 = CYP1A2 activity in upcyte hepatocytes after treatment (probe substrate cocktail); settings: read-out: EC50 of induction of CYP1A2 activity, 72 h, 50 pM to 5 µM
Experimental: (§5) Cells were cultivated in hepatocyte culture medium at 37 °C and 5 °% CO2 in a humidified incubator. Before starting experiments, cells were cultivated in hepatocyte culture medium containing 0.5% (v/v) DMSO (Preculture medium) for 5 days (density of 0.8 × 10^4 cells/cm^2) and were subcultivated in high-performance medium containing 0.1% (v/v) DMSO (Metabolism conditioning medium) for 3–5 days (density of 1.6 × 10^5 cells/cm^2, confluence). The medium was replaced every 2–3 days.
(§6) In HLM and supersome™ incubations the formation rate is given as nmol µg^−1 min^−1 and fmol pmol^−1 min^−1, respectively, and was calculated as the mean ± SD. […] The intrinsic Clearance (Clint) was given as Vmax/Km ratio. […] Activity of CYP enzymes in induction assays is given as the fold-change (mean ± SD) compared to the corresponding DMSO-treated control. […] Gene expression patterns of treated cells are given as fold-change compared to the corresponding DMSO-treated control samples, as described above. […] In induction and inhibition experiments corresponding EC50 and IC50 values were calculated by nonlinear regression. In all experiments a level of probability (p) ≤ 0.05 for statistical testing was considered significant.
(§7) As control 0.05 % DMSO was used. The basal CYP activity and induction of CYP activity compared to the DMSO control were measured via HPLC-ESI-MS/MS.

CYP2B6 = CYP2B6 activity in upcyte hepatocytes after treatment (probe substrate cocktail); settings: read-out: EC50 of induction of CYP2B6 activity; upcyte hepatocytes, 72 h, 50 pM to 5 µM
Experimental: as §5, §6, §7

CYP3A4 = CYP3A4 activity in upcyte hepatocytes after treatment (probe substrate cocktail); settings: 72 h
Experimental: as §5, §6, §7

CYP1A1 gene expression = CYP1A1 gene expression in upcyte hepatocytes (Fluidigm RT-PCR); format: cell-based, human; settings: 5 µM, 72 h, both cell strains
From the text: Differences between induced and control samples were compared using Welch’s t-test (GraphPad Prism, version 5.04), when the fold-change was considered biologically relevant (1.5-fold increase or decrease in fold-changes) and corrected for multiple testing according to Bonferroni. […] An unpaired t-test assuming unequal variances was used for testing of differences in the expression patterns, when the fold-change was considered biologically relevant (1.5-fold increase or decrease in fold-changes) and corrected using Bonferroni adjustments.

estrogen receptor = tested on: estrogen receptor; parameters: method as in Johnson et al. [1989]; Murphy et al. [1990]; settings: in vitro, estrogen-dependent breast cancer cell lines; ref Johnson et al. [1989]; Murphy et al. [1990]; cited from earlier work
CYP2C8 [3] = biological target: T1, CYP2C8 (Homo sapiens, UniProt P10632); assay: CYP2C8 activity in upcyte hepatocytes after treatment (probe substrate cocktail); format: cell-based; parameters: host or cells: upcyte hepatocytes 653-03 and 653-03 #138 (653-03 2D6); settings: for inhibition at 72 h, 5 µM: human, upcyte hepatocytes 653-03 and 653-03 2D6, probe amodiaquine 5 µM, both cell lines
T1 sequence (P10632 1-490): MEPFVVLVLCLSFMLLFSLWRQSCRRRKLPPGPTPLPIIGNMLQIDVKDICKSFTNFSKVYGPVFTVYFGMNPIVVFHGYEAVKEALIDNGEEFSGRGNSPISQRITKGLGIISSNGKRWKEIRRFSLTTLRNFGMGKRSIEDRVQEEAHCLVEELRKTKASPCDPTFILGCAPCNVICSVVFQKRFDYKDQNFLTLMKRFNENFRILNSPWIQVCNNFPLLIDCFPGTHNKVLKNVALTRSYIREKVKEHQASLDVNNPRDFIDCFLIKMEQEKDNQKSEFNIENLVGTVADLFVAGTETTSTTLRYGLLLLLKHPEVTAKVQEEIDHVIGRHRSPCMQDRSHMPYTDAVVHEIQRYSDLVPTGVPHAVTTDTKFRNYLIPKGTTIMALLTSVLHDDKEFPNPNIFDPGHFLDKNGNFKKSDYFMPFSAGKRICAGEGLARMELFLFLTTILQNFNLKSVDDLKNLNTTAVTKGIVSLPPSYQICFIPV
Experimental: as §5, §6, §7

CYP2C9 [4] = biological target: T2, CYP2C9 (Homo sapiens, UniProt P11712); assay: CYP2C9 activity in upcyte hepatocytes after treatment (probe substrate cocktail); format: cell-based; parameters: host or cells: upcyte hepatocytes 653-03 and 653-03 #138 (653-03 2D6); settings: human; for inhibition at 72 h, 5 µM: probe tolbutamide 100 µM
Experimental: as §5, §6, §7

CYP2C19 [5] = biological target: T3, CYP2C19 (Homo sapiens, UniProt P33261); assay: CYP2C19 activity in upcyte hepatocytes after treatment (probe substrate cocktail); format: cell-based; parameters: host or cells: upcyte hepatocytes 653-03 and 653-03 #138 (653-03 2D6)
Experimental: as §5, §6, §7

[6] = tested on: upcyte hepatocytes 653-03 2D6; assay: Tam metabolism in upcyte hepatocytes 653-03 2D6, metabolites in culture medium; format: in vitro ADME, human; settings: cells incubated with 1 µM Tam up to 144 h; for concentration in the culture medium: 653-03 2D6
Experimental: as §1, §2, §3, §4

[7] = tested on: CYP1A2, 2C19, 2C9, 2B6, 3A4 and 2C8; assay: CYP activity in upcyte hepatocytes after treatment, all tested CYP isoenzymes together; format: cell-based, human
Experimental: as §5, §6

CYP2C8 [8] = biological target: T1, CYP2C8; assay: Inhibition of CYP2C8 activity in HLM; format: in vitro ADME; settings: 200 nM to 10 µM, 10 min pre-incubation
CYP2C9 [9] = biological target: T2, CYP2C9; assay: Inhibition of CYP2C9 activity in HLM; format: in vitro ADME; settings: 200 nM to 10 µM, 10 min pre-incubation
CYP2C19 [10] = biological target: T3, CYP2C19; assay: Inhibition of CYP2C19 activity in HLM; format: in vitro ADME; settings: 200 nM to 10 µM, 10 min pre-incubation
[11] = tested on: upcyte hepatocytes 653-03; assay: Tam metabolism in upcyte hepatocytes 653-03 (parental), metabolites in culture medium; format: in vitro ADME, human; settings: cells incubated with 1 µM Tam up to 144 h, parental 653-03
Experimental: as §1, §2, §3, §4

[12] = read-out: Km, (E)-Met E formation
[13] = read-out: Km, (Z)-Met E formation

T3 sequence (P33261 whole entry): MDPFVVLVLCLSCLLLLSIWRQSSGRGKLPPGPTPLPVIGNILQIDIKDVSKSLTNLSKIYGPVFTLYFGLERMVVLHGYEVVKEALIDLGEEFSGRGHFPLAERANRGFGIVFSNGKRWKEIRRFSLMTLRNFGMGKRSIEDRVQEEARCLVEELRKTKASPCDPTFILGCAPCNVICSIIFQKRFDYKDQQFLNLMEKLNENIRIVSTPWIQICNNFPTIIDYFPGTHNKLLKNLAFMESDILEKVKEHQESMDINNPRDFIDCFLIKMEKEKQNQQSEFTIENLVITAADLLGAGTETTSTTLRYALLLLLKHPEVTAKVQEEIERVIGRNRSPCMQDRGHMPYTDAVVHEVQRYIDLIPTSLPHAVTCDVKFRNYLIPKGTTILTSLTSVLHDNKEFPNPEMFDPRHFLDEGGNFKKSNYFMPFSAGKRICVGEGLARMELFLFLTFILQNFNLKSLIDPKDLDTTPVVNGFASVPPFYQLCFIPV
T2 sequence (P11712 whole entry): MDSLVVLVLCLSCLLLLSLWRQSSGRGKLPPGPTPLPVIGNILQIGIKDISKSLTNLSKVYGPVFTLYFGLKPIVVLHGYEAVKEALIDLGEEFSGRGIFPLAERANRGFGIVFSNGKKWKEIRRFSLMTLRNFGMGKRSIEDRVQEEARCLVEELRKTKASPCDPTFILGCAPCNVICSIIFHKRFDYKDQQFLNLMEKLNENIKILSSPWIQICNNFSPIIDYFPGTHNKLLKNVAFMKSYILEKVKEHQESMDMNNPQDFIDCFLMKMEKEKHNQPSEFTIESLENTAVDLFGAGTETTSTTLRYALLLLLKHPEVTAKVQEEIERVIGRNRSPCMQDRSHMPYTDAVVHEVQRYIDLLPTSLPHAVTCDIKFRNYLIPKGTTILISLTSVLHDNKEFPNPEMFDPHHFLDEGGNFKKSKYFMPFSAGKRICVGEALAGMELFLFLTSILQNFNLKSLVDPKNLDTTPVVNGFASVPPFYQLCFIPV

CCC(=C(c1ccccc1)c1ccc(O)cc1)c1ccccc1 [(Z)-Met E, 4-[1,2-diphenylbut-1-en-1-yl]phenol]
V max, Bisphenol formation [1]: 17.2 pmol/mg/min | Km ([1]; read-out: Km, Bisphenol formation): 8.2 µM | concentration in the supernatant of the cells [2]: up to 440 pM | EC50 (CYP1A2): > 5 µM | EC50 (CYP2B6): > 5 µM | induction of CYP3A4 activity compared to DMSO control (CYP3A4; 5 µM, parental and derived cell line): weakly induced | EC50 (CYP3A4; read-out: EC50 of induction of CYP3A4 activity, upcyte hepatocytes, 50 pM to 5 µM): 0.308 µM | CYP1A1 gene expression, induction vs DMSO control (CYP1A1 gene expression): 3.3 fold | agonism regarding estrogen-regulated mRNA expression (estrogen receptor): full agonists | EC50 (CYP2C8 [3]; upcyte hepatocytes, 72 h, 50 pM to 5 µM, read-out: EC50 of induction of CYP2C8 activity): > 5 µM | EC50 at 72 h (CYP2C9 [4]; probe tolbutamide (100 µM), upcyte hepatocytes, 50 pM to 5 µM, read-out: EC50 of induction of CYP2C9 activity): > 5 µM | EC50 (CYP2C19 [5]; upcyte hepatocytes, 72 h, 50 pM to 5 µM, read-out: EC50 of induction of CYP2C19 activity): > 5 µM

CC/C(=C(/c1ccc(OCCN(C)C)cc1)c1ccc(O[C@@H]2O[C@H](C(=O)O)[C@@H](O)[C@H](O)[C@H]2O)cc1)c1ccccc1 [4OH-Tam-glucuronide, tamoxifen-4-O-glucuronide]
concentration in the supernatant of 653-03 2D6 cells relative to parental cells [6]: up to 25 times

CCC(=C(c1ccccc1)c1ccc(O)cc1)c1ccccc1 [Met E, 4-[1,2-diphenylbut-1-en-1-yl]phenol]
inhibitory effect on the tested CYP enzymes ([7]; 5 µM, 72 h): did not act as CYP inhibitors

CC/C(=C(\c1ccc(O)cc1)c1ccc(OCCNC)cc1)c1ccccc1 [Endox, (Z)-endoxifen]
concentration in the culture medium [6]: up to 11 nM | IC50 (CYP2C8 [8]): 8.1 µM | IC50 (CYP2C9 [9]): > 10 µM | IC50 of CYP2C9 activity (CYP2C9 [9]): weakly inhibited | IC50 at 15 min (CYP2C19 [10]; human, human liver microsomes): > 10 µM | CYP1A1 gene expression, induction vs DMSO control (CYP1A1 gene expression): up to 2.3 fold | inhibition at 72 h, 5 µM (CYP2C8 [3]): ≤ 90% | inhibition at 72 h, 5 µM (CYP2C9 [4]): 63%

CC/C(=C(\c1ccccc1)c1ccc(OCCN)cc1)c1ccccc1 [DDM-Tam, N-didesmethyl-tamoxifen]
V max, (E)-Met E formation [1]: 0.70 pmol/mg/min | V max, (Z)-Met E formation [1]: 5.2 pmol/mg/min | Km [1, 12]: 20.7 µM | Km [1, 13]: 55.1 µM

CC/C(=C(\c1ccccc1)c1ccc(OCCN(C)C)cc1)c1ccccc1 [Tam, Tamoxifen, reference compound]
V max, (E)-Met E formation [1]: 0.57 pmol/mg/min | V max, (Z)-Met E formation [1]: 9.2 pmol/mg/min | Km [1, 12]: 11.5 µM | Km [1, 13]: 82.3 µM

CC/C(=C(\c1ccccc1)c1ccc(OCCNC)cc1)c1ccccc1 [DM-Tam, N-desmethyltamoxifen]
V max, (E)-Met E formation [1]: 0.32 pmol/mg/min | V max, (Z)-Met E formation [1]: 6.1 pmol/mg/min | Km [1, 12]: 11.5 µM | Km [1, 13]: 102 µM | concentration in the culture medium [11]: up to 8 nM | concentration in the culture medium [6]: ≤ 14 nM

C[C@]12CC[C@@H]3c4ccc(O)cc4CC[C@H]3[C@@H]1CC[C@@H]2O [estradiol, reference compound]
impact on CYP activities ([7]; 500 nM, 3 days): did not have an impact

CC/C(=C(\c1ccc(O)cc1)c1ccc(OCCN)cc1)c1ccccc1 [Norendox, N-didesmethyl-4-hydroxytamoxifen]
IC50 (CYP2C8 [8]): 2.4 µM | IC50 (CYP2C9 [9]): 0.21 µM | IC50 (CYP2C19 [10]): 0.32 µM | inhibition at 72 h, 5 µM (CYP2C8 [3]): 62.5% | inhibition at 72 h, 5 µM (CYP2C9 [4]): 93% | inhibition at 72 h, 5 µM (CYP2C19 [5]; human, probe S-mephenytoin 100 µM, 5 µM): ≤ 70%
